In a melting point compilation (Tetko et al.; mined from patent text by program, amines drawn as free bases though some values may be those of a salt):

Point of comparison: Cc1cccc(N2CCN(CCc3ccc(N4CCCNC4=O)cc3)CC2)c1, melting point 213 °C. Against it:
- CCOC(=O)c1cccc(-c2c(C)c(NC(=O)CC(C)(C)C)c(C)c3c2OCC3c2ccc(C(C)C)cc2)c1 (centres undefined) — lower, 175 to 177 °C
- CSc1cc(C)nc(SC)c1NC(=O)CN1CCN(CCSc2nc3ccccc3o2)CC1 — lower, 140 to 141 °C
- COc1ccc2[nH]c(C(=O)Nc3ccc(CCCN(C)Cc4ccc(OC)c(OC)c4)cc3)cc2c1 — lower, 80 °C
- CCOC(=O)c1c(C(F)F)nc(C(F)(F)F)c(C(=O)OC)c1NC(C)C — lower, 37 to 39 °C
- COC(=O)c1c(Oc2ccccc2N)c2ccccc2n1C — lower, 103 to 105 °C
- CN(CC(=O)NC1(c2ccccc2Cl)C(=O)Nc2ccc(Cl)cc21)CC(=O)OC(C)(C)C (centres undefined) — lower, 200 °C
- Nc1nc2ncnc(NCc3ccco3)c2[nH]1 — lower, 128 to 130 °C
- O=C(N[C@@H](Cc1ccccc1)C(=O)Oc1cc(Cl)c(Cl)cc1Cl)OCc1ccccc1 — lower, 139 to 140 °C
- COc1ccc(C(=O)C2(Br)CCCCC2)c(Cl)c1Cl — lower, 94 to 95 °C
- CC(=O)N(C)c1c(N(C)C)cc(C(=O)CS(C)(=O)=O)cc1N(C)C — lower, 120 °C
- O=C1COCc2ccccc2N1 — lower, 160 to 165 °C
- CC(OCc1ccc(-c2ccccc2)cc1)C(=O)NO (centres undefined) — lower, 120 to 123 °C
- FC(F)(F)c1ccc(-c2cc(C(F)(F)F)n3ncc(-c4cccnc4)c3n2)cc1 — lower, 163 °C
- CC(C)=CCN1CC(=O)Nc2cc(S(=O)(=O)Oc3ccccc3)ccc21 — lower, 132 °C
- O=C(Nc1nc2ccccc2s1)c1cn(-c2ccccc2)c2ccccc2c1=O — higher, 295 to 297 °C
- N#Cc1c[nH]c2ccccc2c1=O — higher, 290 to 300 °C
- Cc1nc(C)c(C(=O)Nc2cccc(Oc3ccc4nc(NC(=O)C5CC5)cn4n3)c2)s1 — higher, 249 °C
- COC(=O)[C@@H](Cc1ccc(-c2ncnc3c2ncn3[C@@H]2CCCCO2)cc1)NC(=O)OC(C)(C)C — lower, 144 to 147 °C
- COc1cc2c(cc1OC)C(C(CO)CO)N(C(=O)c1ccccc1)CC2 (centres undefined) — lower, 161 to 163 °C
- NC(=O)Cc1cc(Cl)ccc1[N+](=O)[O-] — lower, 115 to 116 °C
- NC(=S)NN=C(CCCOC(=O)NCc1ccccc1)c1ccccc1 — lower, 137 to 140 °C
- O=C(O)Cc1c(C(=O)c2ccc(O)cc2)[nH]c2cc(Cl)ccc12 — higher, 231 to 234 °C
- O=c1[nH]c2cc(Cl)c(S(=O)CCN3CCC(Cc4ccc(F)cc4)CC3)cc2o1 (centres undefined) — lower, 199 to 200 °C
- CCCCc1ncc(C(=O)OCC)c(NCc2ccc(-c3ccccc3-c3nnnn3C(c3ccccc3)(c3ccccc3)c3ccccc3)cc2)n1 — lower, 116 to 118 °C
- C=C(CC1(CC(=C)c2ccc(C(=O)Nc3ccccc3N)cc2)C(=O)N(C)C(=O)N(C)C1=O)c1ccc(C(=O)Nc2ccccc2N)cc1 — lower, 161 to 163 °C
- CS(=O)(=O)Nc1cc(N)ccc1Oc1ccccc1 — lower, 112 to 114 °C
- COc1ccc(C)cc1NC(=O)Nc1ccc(N2CCN(C(=O)Oc3c(C)cccc3Cl)CC2)cc1 — lower, 146 to 148 °C
- CS(=O)(=O)c1ccc(-c2[nH]c(Cl)cc2-c2ccc(F)cc2)cc1 — lower, 206 to 208 °C
- CCC(Oc1ccc2c(-c3ccc(Cl)cc3)noc2c1)C(=O)O (centres undefined) — lower, 144 °C
- CC(C)(C)OC(=O)NCc1ccc2c(c1)CNC2 — lower, 114 to 115 °C
- COc1cc(OC)c2c(-c3cc(F)cc(F)c3)coc2c1 — lower, 102 to 103 °C
- COc1nc(C)nc(NC(=O)NS(=O)(=O)c2ccccc2OCC(Cl)CCl)n1 (centres undefined) — lower, 117 to 118 °C
- C[Si](C)(Cn1cncn1)c1ccc(-c2ccccc2)cc1 — lower, 79 to 86 °C
- NS(=O)(=O)c1cc2cc(P(=O)(O)O)c(=O)[nH]c2cc1C(F)(F)F — higher, 240 to 244 °C
- O/N=C(\CCN1CCN(c2ccccn2)CC1)c1ccc(Cl)cc1 — lower, 188 to 190 °C
- Cc1nc2ccccc2n(-c2ccc(N)cc2)c1=O — higher, 269 to 271 °C
- CCCc1nc2c(N)nc3cc(Oc4ccccc4[N+](=O)[O-])ccc3c2n1CC(C)C — lower, 207 to 208 °C
- CCN(CC)CCOc1ccc2cc3ccc(OCCN(CC)CC)c([N+](=O)[O-])c3nc2c1[N+](=O)[O-] — lower, 138 to 140 °C
- CC1(C)CCC(C)(C)c2cc(-c3csc(C=CC(=O)O)c3)ccc21 — lower, 182 to 185 °C
- CCCCCN1C(=O)C(CCC(=O)OC)(NC(=O)c2ccc(Cl)c(Cl)c2)c2ccccc21 (centres undefined) — lower, 84 to 114 °C
- CC(=O)OCc1ccc(-c2nc(=O)c3ccccc3s2)cn1 — lower, 171 to 172 °C
- Cn1c(COc2ccc(CC3SC(=O)NC3=O)cc2)nc2ccc(Oc3cccc(NC(=O)Nc4ccccc4C(F)(F)F)c3)cc21 (centres undefined) — lower, 161 to 164 °C
- COC(=O)CC(=O)NCc1ccccc1 — lower, 51 to 54 °C
- CON(C(=O)c1cn(C)nc1C(F)F)C(C)Cc1c(Cl)sc(Cl)c1Cl (centres undefined) — lower, 70 to 72 °C
- COc1cc2c(cc1Nc1ncc(Cl)c(N[C@@H]3CCCC[C@H]3NS(C)(=O)=O)n1)CCN(C(=O)CN(C)C)CC2 — lower, 128 to 141 °C
- CSc1c2c3c(cccc3n1C)C1C=C(C)CN(C)C1C2 (centres undefined) — lower, 115 to 116 °C
- CCOC(=O)c1cc(C(=O)OCC)c2c(Cl)cc(Cl)cc2n1 — lower, 104 to 106 °C
- CSc1ccc(C2=C(Br)CCC2)cc1 — lower, 52 to 54 °C
- Cn1cc(-c2ncc(-c3ccc4cc(OCC#N)ccc4c3)o2)c2ccccc21 — lower, 196 to 198 °C
- CC(C)n1cc(-c2ccc(NC(=O)c3ccccc3)cc2)c2c(N)ncnc21 — lower, 192 to 195 °C
- CS(=O)(=O)Nc1cc2occ(NS(C)(=O)=O)c(=O)c2cc1Oc1ccccc1 — lower, 199 to 200 °C
- CCCCCCOC(=O)Nc1ccc2c(c1)NC(=O)C2(C)C — lower, 180 to 183 °C
- O=C(O)CCCOc1cccc(OCCC(c2ccccc2)(c2ccccc2)c2ccccc2)c1 — lower, 53 to 55 °C
- O=c1[nH]ncc2[nH]c(-c3ccc(OC(F)F)c(OC4CC4)c3)cc12 — higher, 287 to 292 °C
- c1ccc(CCN2CCN(Cc3nc4ccccc4[nH]3)CC2)cc1 — lower, 150 to 152 °C
- Cc1cccc(N2C(=S)SC(C)C2(C)O)n1 (centres undefined) — lower, 129 °C
- COc1ccc(OC)c(C(=O)C#CC(=O)O)c1 — lower, 91 to 93 °C
- COC(=O)C1Cc2c([nH]c3ccccc23)C(c2ccccc2Cl)N1 (centres undefined) — lower, 154 °C
- CCOC(=O)c1sc(-n2ccc(OCc3ccc(F)cc3)cc2=O)nc1C — higher, 214 to 217 °C
- O=C(Oc1ccc(-c2cc3ccccc3[nH]2)cc1)c1ccccc1 — higher, 220 °C
- CN(CCOc1ccc(C=CC=O)cc1F)c1ccccn1 — lower, 93 to 94 °C
- CS(=O)(=O)c1ccc(C(CC2CCCC2)C(=O)O)cc1Br (centres undefined) — lower, 149 to 150 °C
- CC(=O)Nc1cccc2c1C(=O)c1c-2n[nH]c1-c1ccncc1 — higher, > 300 °C
- O=C(NC(Cc1ccc(OCc2ccccc2)cc1)C(=O)O)c1cn2nc(SCc3ccccc3)ccc2n1 (centres undefined) — lower, 178 to 179 °C
- COC(=O)NCc1cc(C(C)=NOCc2cccc(C)n2)ccc1C — lower, 72 to 75 °C
- Cc1ccc(S(=O)(=O)Nc2ccc([C@@H](C)C(N)=O)cc2)cc1 — lower, 138 to 140 °C
- COC(=O)CSc1ccc(OC)cc1C(=O)OC — lower, 55 to 57 °C
- COCCOc1ccc(CCC(=O)NS(N)(=O)=O)c(Oc2ncc(C(F)(F)F)cc2Cl)c1 — lower, 158 to 159 °C
